Experimental findings from patent publication US20240408093A1, “HETEROBIFUNCTIONAL COMPOUNDS AND THEIR USE IN TREATING DISEASE” (HALDA THERAPEUTICS OPCO, INC., priority 2022, published 2024) are described below.

For assay [1], the target named is T1, BTK (Homo sapiens, UniProt Q06187).
T1 construct: BTK (amino acids 387-659)
The assay can be described thus: Release of effector protein ligand from heterobifunctional compounds, BTK. The class given is biochemical. The settings on record: detected A1-3. As for the experimental part: Exemplary heterobifunctional compounds were evaluated for the ability to release an effector protein ligand in the presence of KRAS G12C, BTK, or EGFR T790M L858R target proteins.
Samples for mass spectrometry for KRAS G12C, BTK, and EGFR T790M L858R were prepared as described above for the intact mass spectrometry target engagement experiment, respectively, except rather than flash-freezing, 20 μL of sample was quenched with 50 μL of 100% acetonitrile. As well, a buffer-only control was used to detect latent release of effector protein ligand analyte. Internal standard (IS) solution consisted of 200 ng/mL propranolol and 50 ng/mL diclofenac in methanol:water 1:1 (v/v). A 4-point calibration curve (calibration standard (CS)) consisting of each analyte was made at final concentrations of 3 nM, 30 nM, 300 nM, and 3000 nM. Unknown samples were diluted such that the unknown analyte concentration was in the linear range of the calibration curve.
Samples for all proteins were prepared and analyzed from the following:
Samples were further analyzed with AB Sciex Triple Quad 5500 system coupled with Shimadzu Prominence HPLC.

Assay [2] deals with HEK293 cells (ATCC CRL-1573). Nature of the assay: Cellular growth inhibition assay, HEK293 cells (Example 16). The class given is cell-based. The following applies: Homo sapiens, 72 hours, CellTiter-Glo 2.0. As for the experimental part:
(§1) Exemplary compounds were tested for ability to inhibit the proliferation of HEK293 cells (ATCC CRL-1573) and HeLa cells (ATCC CCL-2).
(§2) HEK293 and HeLa cells were cultured in DMEM (Gibco 11995), supplemented with 10% Heat-inactivated FBS (Gibco A38400-01) and 1% Penicillin/Streptomycin (Gibco 15140-122) at 37° C. with 5% CO2 in a humidified tissue culture incubator. Cells were seeded at 500 cells/well in 384-well, Poly-D-lysine-treated blackplates (Perkin Elmer 6007710) in 25 μL media lacking selection for 18-24 hours. Plates were spun at 300 g for 30 seconds and stored in the incubator overnight. After 24 hours, a 25 μL aliquot of compound-containing medium was added in each well, at a final top concentration of 10 μM test compound, with 3-fold dilutions, using DMSO alone as a negative control. Plates were then spun at 300×g for 3 minutes again and cultured at 37° C. with 5% CO2. After 72 hours, cell viability was quantified with CellTiter-Glo 2.0 (Promega). After equilibrating cell plates at room temperature for 30 minutes, 25 μL CellTiter-Glo 2.0 reagent was dispensed into each well. Plates were mixed on a shaker for 2 minutes at 500 rpm, followed by a 10-minute incubation at room temperature. Luminescence readings were measured with an EnVision Plate Reader (Perkin Elmer). Data was normalized to DMSO treated cell wells. A four-parameter non-linear regression curve fit was applied to dose-response data in Prism to determine the half maximal growth inhibitory concentration (GI50) of each compound.

The subject of assay [3] is HeLa cells (ATCC CCL-2). The assay can be described thus: Cellular growth inhibition assay, HeLa cells (Example 16). In kind it is cell-based. The settings on record: Homo sapiens, 72 hours, CellTiter-Glo 2.0. As for the experimental part: as §1, §2
The target in assay [4] is T2, GSPT1 (Homo sapiens, UniProt P15170+Q96SW2).
T2 construct: host or cells: HEK293 LgBiT / GSPT1 HiBiT CRISPR knock-in
The assay can be described thus: GSPT1 HiBiT degradation assay. In kind it is cell-based. The following applies: HEK293 LgBiT GSPT1 HiBiT cells, 6 hours. The text has this: Promega developed a HEK293 cell line that constitutively expresses LgBiT protein and GSPT1_HiBiT fusion protein. When both proteins are present, the HiBiT portion of the fusion protein combines with LgBiT protein to form a functional luciferase enzyme. Endurazine, a cell permeable small molecule, is converted by cellular esterases into furimazine, which the luciferase enzyme uses as a substrate to generate luminescence. When GSPT1 is degraded, the HiBit is also degraded. This prevents formation of fully functional luciferase, leading to a loss in luminescence. GSPT1 degradation therefore correlates with a decrease in luminescence and can be measured continuously over time. The concentration of compound at which 50% GSPT1 degradation occurs (DC50) may be calculated using this system.
HEK293 LgBiTGSPT1 HiBiT CRISPR Knock-in cells were cultured in DMEM Media supplemented with 10% Heat-inactivated FBS, 1% Penicillin/Streptomycin, 200 μg/mL hygromycin and stored in a humidified incubator set at 37° C. and 5% CO2. 18-24 hours prior to compound treatment, cells were seeded at 1000 cells/well in a 384-well tissue culture-treated white plates in 25 μL media lacking selection for 18-24 hours. The plates were spun at 300 g for 30 seconds and stored in the incubator overnight. After 24 hours, compounds are titrated in DMSO and added to media supplemented with endurazine substrate. A 25 μL aliquot of 2× compound/endurazine in media is then added to the 384-well microplate with seeded cells. (Endurazine is used at a final concentration of 0.5×). The plate was spun at 300 g for 30 seconds and stored in the incubator. After 6 hours, the plate was read on a Perkin Elmer MultiMode Plate Reader Envision 2105 to measure luminescence signal. Data were plotted in Prism (Graphpad) and the concentration of compound at which 50% GSPT1 degradation occurs (DC50) was calculated.

Assay [5] has as its target KRAS G12C (Homo sapiens, UniProt P01116, G12C). Nature of the assay: KRAS G12C nucleotide exchange assay (SOS1-mediated, HTRF). In kind it is biochemical. Set-up: GST-tagged KRAS G12C (amino acids 2-169). The settings on record: 1 hr pre-incubation. As for the experimental part:
KRAS target engagement (IC50 determination) was performed using a KRAS G12C nucleotide exchange assay. Specifically, compounds were tested against KRAS G12C in 10-point concentration IC50 mode with 3-fold serial dilution at a starting concentration of 10 μM. ARS1620 was used as a control.
Briefly, GST-tagged KRAS G12C (amino acids 2-169) was mixed with anti-GST Tb antibody (1.5× solution) and 10 μL was delivered to reaction wells. Compounds were delivered using an acoustic dispenser (Echo, Labcyte) and pre-incubated with protein for 1 hr at RT. KRAS/anti-GST Tb Ab/compound mixture was incubated for 1 hour at room temperature. A 3× solution of SOS1 (amino acids 564-1049) and GTP-DY-647P1 (GTP*) was prepared in reaction buffer. A 5 μL aliquot of SOS1/GTP* solution was added to reaction wells to initiate the exchange reaction. No-SOS1 reaction or max compound concentration was used as blank. The final concentrations of KRAS G12C, SOS1, and GTP* were 30 nM, 20 nM, and 0.15 μM, respectively. SOS1 mediated exchange of GDP to GTP-DY-647P was measured using HTRF (Ex/Em=(320-75/665-7.5; 615-8.5)) using an Envision Plate Reader (Perkin Elmer). IC50 determination was performed using a Sigmoidal dose response (variable slope) equation.

The test system of assay [6] is GSPT1. Nature of the assay: Payload release assay (DC50 readout), GSPT1 degradation in the presence of recombinant target protein. The class given is cell-based. The settings on record: I-series compounds (GSPT1 readout inferred). As for the experimental part:
Exemplary compounds were tested for ability to cause degradation of CCNK or GSPT1 in the presence of recombinant target protein.
HEK293 LgBiT/GSPT1 HiBiT CRISPR Knock-in cells (Promega) were cultured in DMEM (Gibco 11995), supplemented with 10% Heat-inactivated FBS (Gibco A38400-01) and 1% Penicillin/Streptomycin (Gibco 15140-122) and 200 Vg/ml Hygromycin B (Gibco 10-687-010) at 37° C. with 5% CO2 in a humidified tissue culture incubator. HEK293 LgBiT/CCNK HiBiT cells (in-house, described above) were cultured in DMEM (Gibco 11995), supplemented with 10% Heat-inactivated FBS (Gibco A38400-01) and 1% Penicillin/Streptomycin (Gibco 15140-122) 200 Vg/ml Hygromycin B (Gibco 10-687-010), and 1 Vg/ml Puromycin Dihydrochloride (Thermo A1113803) at 37° C. with 5% CO2 in a humidified tissue culture incubator. Cells were seeded (1000 cells/well for HEK293 LgBiT/GSPT1 HiBiT cells or 3000 cells/well for HEK293 LgBiT/CCNK HiBiT cells) 384-well, tissue culture-treated white plates (Perkin Elmer 6007680) in 10 μL media lacking selection for 18-24 hours. Plates were spun at 300 g for 30 seconds and stored in the incubator overnight. After 24 hours, a 5 μL aliquot of recombinant target protein (final concentration of either 5 μM KRAS amino acids 1-169, C51S, C80L, C118S, G12C or 3 μM EGFR amino acids 696-1022 or 3 μM EGFR amino acids 696-1022, T790M, L858R) was added to wells, followed immediately by a 5 μL aliquot of 4× compound-containing medium supplemented with Endurazine Substrate (Promega N2570) was added in each well, at a final top concentration of 10 μM test compound and 0.5× Endurazine, with 4-fold dilutions, using DMSO alone as a negative control. Plates were then spun at 300×g for 3 minutes again and cultured at 37° C. with 5% CO2. After 6 hours the plate was read on Envision MultiMode Plate Reader 2105 (Perkin Elmer) to measure luminescence signal. Data was normalized to DMSO treated cell wells. A four-parameter non-linear regression curve fit was applied to dose-response data in Prism to determine the half maximal growth inhibitory concentration (GI50) of each compound.

Setting [7] is: 0 μM recombinant KRAS G12C, read-out: DC50 at 0 μM KRAS G12C.
Setting [8] is: 5 μM recombinant KRAS G12C, read-out: DC50 at 5 μM KRAS G12C.

pIC50: −log10 of the molar value. Where two headings read alike, the source gives them in different places.

Sequence of KRAS G12C (P01116 2-169 isoform P01116-2 G12C): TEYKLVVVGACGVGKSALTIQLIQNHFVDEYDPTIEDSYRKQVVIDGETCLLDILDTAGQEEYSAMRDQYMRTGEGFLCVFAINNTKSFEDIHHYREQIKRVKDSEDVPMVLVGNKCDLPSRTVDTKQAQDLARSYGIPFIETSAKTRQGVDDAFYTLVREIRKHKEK
T2 sequence (P15170 whole entry): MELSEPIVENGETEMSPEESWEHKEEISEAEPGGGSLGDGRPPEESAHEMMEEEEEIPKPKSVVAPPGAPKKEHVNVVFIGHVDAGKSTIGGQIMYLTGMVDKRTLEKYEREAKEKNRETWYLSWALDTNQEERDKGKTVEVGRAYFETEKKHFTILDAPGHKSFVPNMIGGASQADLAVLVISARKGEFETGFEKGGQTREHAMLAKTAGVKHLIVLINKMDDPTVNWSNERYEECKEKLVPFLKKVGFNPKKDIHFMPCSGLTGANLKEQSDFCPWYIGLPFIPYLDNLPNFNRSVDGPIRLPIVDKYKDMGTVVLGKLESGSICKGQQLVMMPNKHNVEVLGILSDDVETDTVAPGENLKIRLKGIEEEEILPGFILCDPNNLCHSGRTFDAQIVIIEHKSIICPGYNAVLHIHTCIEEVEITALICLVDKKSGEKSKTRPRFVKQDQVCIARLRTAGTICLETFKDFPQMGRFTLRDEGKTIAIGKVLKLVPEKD
T2 sequence (Q96SW2 whole entry): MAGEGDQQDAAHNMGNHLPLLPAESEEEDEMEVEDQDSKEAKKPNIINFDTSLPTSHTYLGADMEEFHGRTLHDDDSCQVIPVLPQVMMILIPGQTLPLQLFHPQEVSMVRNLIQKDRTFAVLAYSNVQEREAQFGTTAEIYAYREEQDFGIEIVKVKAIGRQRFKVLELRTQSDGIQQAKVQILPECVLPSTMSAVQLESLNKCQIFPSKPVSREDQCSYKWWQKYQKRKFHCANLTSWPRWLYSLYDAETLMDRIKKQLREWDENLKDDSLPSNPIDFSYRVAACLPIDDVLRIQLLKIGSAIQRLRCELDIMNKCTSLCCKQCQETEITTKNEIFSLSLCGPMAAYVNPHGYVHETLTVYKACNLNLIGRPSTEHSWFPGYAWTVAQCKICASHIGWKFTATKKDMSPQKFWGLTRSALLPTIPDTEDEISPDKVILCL
T2 sequence (Q16531 whole entry partner): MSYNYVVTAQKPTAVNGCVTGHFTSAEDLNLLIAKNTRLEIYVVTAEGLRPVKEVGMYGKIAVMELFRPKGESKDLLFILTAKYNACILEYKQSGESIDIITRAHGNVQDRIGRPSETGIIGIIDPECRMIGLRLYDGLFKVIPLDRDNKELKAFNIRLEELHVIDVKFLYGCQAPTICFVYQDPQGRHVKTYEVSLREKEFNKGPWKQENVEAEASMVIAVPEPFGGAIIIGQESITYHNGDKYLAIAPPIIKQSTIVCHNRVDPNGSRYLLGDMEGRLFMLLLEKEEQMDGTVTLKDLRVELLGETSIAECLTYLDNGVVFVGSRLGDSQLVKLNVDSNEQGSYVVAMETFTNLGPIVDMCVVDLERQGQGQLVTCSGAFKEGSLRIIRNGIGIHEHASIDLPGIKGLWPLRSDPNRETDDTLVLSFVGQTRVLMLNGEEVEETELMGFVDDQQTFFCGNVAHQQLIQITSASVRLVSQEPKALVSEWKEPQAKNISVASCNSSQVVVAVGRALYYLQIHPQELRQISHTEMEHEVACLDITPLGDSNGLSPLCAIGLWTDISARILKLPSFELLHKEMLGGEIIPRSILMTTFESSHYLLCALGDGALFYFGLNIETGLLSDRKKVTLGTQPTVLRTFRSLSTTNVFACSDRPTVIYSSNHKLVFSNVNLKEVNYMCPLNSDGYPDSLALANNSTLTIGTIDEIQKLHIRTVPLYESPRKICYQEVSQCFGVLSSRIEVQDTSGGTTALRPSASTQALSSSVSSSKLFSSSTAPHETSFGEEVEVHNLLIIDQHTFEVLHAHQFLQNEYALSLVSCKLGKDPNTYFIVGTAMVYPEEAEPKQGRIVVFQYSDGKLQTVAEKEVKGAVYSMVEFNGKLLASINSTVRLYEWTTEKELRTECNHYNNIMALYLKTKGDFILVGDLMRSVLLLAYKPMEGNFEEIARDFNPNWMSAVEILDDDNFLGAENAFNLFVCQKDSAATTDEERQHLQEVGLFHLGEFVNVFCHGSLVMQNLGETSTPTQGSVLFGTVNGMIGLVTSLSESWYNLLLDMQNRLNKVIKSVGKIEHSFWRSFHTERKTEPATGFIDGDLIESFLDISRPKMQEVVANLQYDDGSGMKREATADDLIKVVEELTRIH
T1 sequence (Q06187 387-659): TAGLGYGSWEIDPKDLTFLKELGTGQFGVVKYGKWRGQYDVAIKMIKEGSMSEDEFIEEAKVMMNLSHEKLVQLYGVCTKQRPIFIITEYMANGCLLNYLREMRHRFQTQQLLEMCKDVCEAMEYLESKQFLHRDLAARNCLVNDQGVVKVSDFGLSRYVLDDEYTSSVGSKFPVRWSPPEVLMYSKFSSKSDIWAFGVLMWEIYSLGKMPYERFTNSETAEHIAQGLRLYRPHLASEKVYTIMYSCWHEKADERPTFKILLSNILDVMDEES

As for `C=C(Cn1cc(CNc2cc(N3CCCC[C@H]3CCO)nc3c(CC)cnn23)ccc1=O)C(=O)N(C)CCOc1c(N)ncnc1-c1cc(F)cc(NC(=O)c2ccc(C3CC3)cc2F)c1C` [Compound A1-5], the “Concentration of Effector Protein Ligand” value in assay [1] (Matrix Buffer + Protein (BTK), Time 0 h) is on record as 51.8 nM; in assay [1] (Matrix Buffer + Protein (BTK), Time 1 h) it was 72.3 nM; in assay [1] (Matrix Buffer + Protein (BTK), Time 4 h) it was 118 nM; in assay [1] (Matrix Buffer + Protein (BTK), Time 22 h), 164 nM; in assay [1] (Matrix Buffer, Time 0 h), 44.9 nM; in assay [1] (Matrix Buffer, Time 1 h) it was 49 nM. Further, the “Concentration of Effector Protein Ligand” value in assay [1] (Matrix Buffer, Time 4 h) came out at 52.4 nM; in assay [1] (Matrix Buffer, Time 22 h), 80.5 nM.

On to `C=C(COc1cc(Cl)cc(NC(=O)NCc2ccc3c(c2)CN(C2CCC(=O)NC2=O)C3=O)c1)C(=O)N1CCN(c2ncnc3c(F)c(-c4c(O)cccc4F)c(Cl)cc23)CC1` (stereo not drawn) [Compound I-43], for which the values for the GI50 in assay [2] and in assay [3] were under 500 nM and 500 to 1500 nM, respectively. In assay [4], this molecule returned a 50% degradation concentration (DC50) of 50 to 500 nM. In assay [5], this molecule gave a pIC50 of under 5.00.

As for `C=C(COc1cc(Cl)cc(NC(=O)NCc2ccc3c(c2)CN(C2CCC(=O)NC2=O)C3=O)c1)C(=O)N1CC(n2c(=O)c3cc(-c4cc(O)cc5ccccc45)ccc3n2C)C1` (stereo not drawn) [Compound I-57], the 50% growth inhibitory concentration (GI50) is under 500 nM in assay [2] and 1500 to 10000 nM in assay [3]. The values for the DC50 in assay [4], in assay [6] (setting [7]) and in assay [6] (setting [8]) were 50 to 500 nM, under 250 nM and under 250 nM, respectively. The same molecule gave a negative-log IC50 (pIC50) in assay [5] of under 5.00.

In assay [2], `C=C(COc1cc(C(F)(F)C(=O)NCc2ccc3c(c2)CN(C2CCC(=O)NC2=O)C3=O)ccc1Cl)C(=O)N1CCN(c2nc(OC[C@@H]3CCCN3C)nc3c2CCN(c2cccc4cccc(Cl)c24)C3)C[C@@H]1CC#N` (stereo partly drawn) [Compound I-81] had a GI50 of 1500 to 10000 nM. Further, the 50% degradation concentration (DC50) in assay [4] was 50 to 500 nM; in assay [6] (setting [7]), 250 to 5000 nM; in assay [6] (setting [8]), over 10000 nM. Besides, the negative logarithm of the IC50 (pIC50) in assay [5] was over 7.00.

On to `C=C(COc1cc([N+](=O)[O-])c(Cl)cc1NC(=O)NCc1ccc2c(c1)CN(C1CCC(=O)NC1=O)C2=O)C(=O)N1CCN(c2nc(OC[C@@H]3CCCN3C)nc3c2CCN(c2cccc4cccc(Cl)c24)C3)C[C@@H]1CC#N` (stereo partly drawn) [Compound I-82], for which the GI50 in assay [2] is over 10000 nM. In addition, the half-maximal degradation concentration (DC50) was over 2500 nM in assay [4], over 10000 nM in assay [6] (setting [7]) and 5000 to 10000 nM in assay [6] (setting [8]). In addition, the negative logarithm of the IC50 (pIC50) in assay [5] is 5.30 to 7.00.

On to `C=C(CN1C(=O)CCC(N2Cc3cc(CNC(=O)Nc4cccc(Cl)c4O)ccc3C2=O)C1=O)C(=O)N1CCN(c2nc(OC[C@@H]3CCCN3C)nc3c2CCN(c2cccc4cccc(Cl)c24)C3)C[C@@H]1CC#N` (stereo partly drawn) [Compound I-83], for which the GI50 in assay [2] was in the range of 1500 to 10000 nM. Besides, the DC50 is 500 to 2500 nM in assay [4], 250 to 5000 nM in assay [6] (setting [7]) and over 10000 nM in assay [6] (setting [8]). Moreover, the pIC50 in assay [5] is 5.30 to 7.00.
